Source: patent US4808586A, “Substituted benzimidazoles and benzothidiazoles having anti-asthmatic and/or anti-inflammatory activities” (American Cyanamid Company, priority 1987, dated 1989)
Where two headings read alike, the source gives them in different places.

Key:
[1] = system: Immunologically Stimulated Human Basophils; assay: Inhibition of histamine release from immunologically stimulated human basophils; format: cell-based; conditions: 1 h; human basophils challenged with anti-IgE or antigen, 60 minutes at 37° C.; linear regression; active if ED50 ≤48 μM; read-out: ED50 (concentration which causes a 50% inhibition of histamine release)
Procedure: The novel compounds of this invention have been tested by the procedure of Lichtenstein, L. M. and Osler, A. G., J. Exp. Med., 120, 507-530 (1964), which evaluates the ability of compounds to inhibit mediator (histamine) release from immunologically stimulated human basophils.
Dissolve 140.3 g of sodium chloride, 7.45 g of potassium chloride and 74.5 g of Trizma-Tris Pre-Set, Reagent Grade, pH 7.6, at 25° C. (Sigma Chemical Co.) in sufficient water to give a final volume of 2 liters.
(Sigma Chemical Co.) (30 mg/ml)
Made to 0.75M and 0.5M respectively, with calcium chloride dihydrate and magnesium chloride hexahydrate.
A 10 ml portion of 10X Tris Buffer and 1.0 ml of human albumin are diluted to 100 ml with water.
A 10 ml portion of 10X Tris Buffer, 1.0 ml of human albumin, 0.8 ml of calcium stock and 0.2 ml of magnesium stock are diluted to 100 ml with water.
Behring Diagnostics (Generally used at 10 μg protein/ml final concentration).
Strength 1:100 (w:v) allergenic extract, Hollister-Stier Labs. Generally this is diluted 1:1000 to 1:10,000 (considering the vial as stock).
Intradermal solutions or intramuscular preparations for hyposensitization, Hollister-Stier Labs. The final concentration used is on the order of 1 PNU/ml.
Eighty milliliters of blood is withdrawn from subjects with known histamine release to anti-Ige, rageweed antigen or other specific alergen, using four 20 ml heparainized tubes. This 80 ml of blood is mixed with 20 ml of saline containing 0.6 g of dextrose and 1.2 g of dextran. The blood is allowed to sediment at room temperature in two 50 ml polycarbonate centrifuge tubes until a sharp interface develops between the red cells and plasma (60-90 minutes). The plasma (top) layer from each tube is with-drawn by pipet and transferred to respective 50 ml polycarbonate tubes. The plasma is centrifuged for 8 minutes at 100×G at […]. The supernatant is carefully poured off as completely as possible and the cell button is resuspended in 2-3 ml of Tris-A buffer using a silconized Pasteur pipet. The resuspension is accomplished by drawing the liquid gently in an out of the pipet, with the tip below the liquid, until and even suspension of cells is obtained. Sufficient Tris-A buffer is then added to bring the volume in the tube to about 45 ml and the tube is centrifuged at 110×G for 8 minutes at 4° C. The supernatant is poured off and the cell button is resuspended and centrifuged as described above. The supernatant is poured off and the cell button suspended in 2-3 ml of Tris-ACM buffer to make the final volume sufficient to allow addition to the reaction tubes.
Reaction tubes containing anti-IgE or antigens, either alone or with test compound in a total volume of 0.2 ml are prepared and placed in a 37° C. bath. […]

[2] = molecular target: T1, Neutrophil Lipoxygenase (Cavia porcellus, UniProt A0A286X958); assay: Inhibition of neutrophil lipoxygenase (release and biosynthesis of LTB4 and 5-HETE) in guinea pig peritoneal neutrophils; format: cell-based; conditions: 10 μg/ml, 100 μM arachidonic acid and 20 μM A23187, the lower the percentage, the more active
T1 construct: endogenous in cells; host or cells: guinea pig peritoneal neutrophils
T1 sequence (A0A286X958 1-674): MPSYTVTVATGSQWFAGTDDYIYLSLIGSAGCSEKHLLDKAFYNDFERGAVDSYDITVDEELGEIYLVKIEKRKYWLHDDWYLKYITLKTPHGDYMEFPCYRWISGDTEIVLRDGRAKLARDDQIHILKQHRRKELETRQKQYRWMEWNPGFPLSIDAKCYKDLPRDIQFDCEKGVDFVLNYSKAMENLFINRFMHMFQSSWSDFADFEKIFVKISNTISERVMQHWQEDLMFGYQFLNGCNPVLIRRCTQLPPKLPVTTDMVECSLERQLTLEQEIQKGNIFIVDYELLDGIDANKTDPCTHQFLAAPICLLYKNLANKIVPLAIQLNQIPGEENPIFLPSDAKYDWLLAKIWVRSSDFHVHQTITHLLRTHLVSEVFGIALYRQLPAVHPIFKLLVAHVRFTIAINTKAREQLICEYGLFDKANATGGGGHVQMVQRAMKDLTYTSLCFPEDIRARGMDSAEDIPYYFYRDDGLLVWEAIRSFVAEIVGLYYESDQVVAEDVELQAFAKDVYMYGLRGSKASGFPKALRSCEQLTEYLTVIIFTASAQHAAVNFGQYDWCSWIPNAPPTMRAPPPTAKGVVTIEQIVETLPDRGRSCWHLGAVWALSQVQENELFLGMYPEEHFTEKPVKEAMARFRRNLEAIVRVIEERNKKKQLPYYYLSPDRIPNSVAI
Procedure: The ability of these compounds to inhibit lipoxygenase activity in terms of the suppression of the release and biosynthesis of leukotriene B4 (LTB4) and 5-hydroxyeicosatetraenoic acid (5-HETE) was measured as follows.
In this assay 3×10^7 peritoneal neutrophils derived from guinea pigs were incubated at 37° C. in Dulbeccos buffer containing 50 mM tris buffer (pH 7.4). Five minutes before the addition of 100 μM arachidonic acid and 20 μM calcium ionophore (A23187), control vehicle or the test compounds were added to the neutrophils at a concentration of 10 μg/ml.
Three minutes after the addition of arachidonic acid and calcium ionophore the total lipid was partitioned into chloroform after adjusting the pH to 3 with citric acid and the addition of equal parts of methanol and chloro-form.
The 5-HETE and LTB4 were resolved by HPLC using a 5 μM, 4×25 cm octadecyl silica solumn (IBM Instruments) with 70-80% methanol in water adjusted to pH 3.0 with acetic acid. As the mobile phase was pumped at 1.0 ml/minute, LTB4 and 5-HETE were detected by absorbance at 270 and 236 nm, respectively.
LTB4 and 5-HETE were quantitated by comparison with the control and results were expressed as a percent of control.

**Q.** `CCOC(=O)N1CCN(C2=C(Cl)C(=O)c3nsnc3C2=O)CC1` [4-(6-Chloro-4,7-dihydro-4,7-dioxo-2,1,3-benzothiadiazol-5-yl)-1-piperazinecarboxylic acid, ethyl ester] was tested. Which IC50 [1] did it give?
**A.** 1 µM

**Q.** And the remaining activity at 10 µg/mL ([2]; read-out: 5-HETE, % of Control)?
**A.** 40.5%

**Q.** What about the remaining activity at 10 µg/mL ([2]; read-out: LTB4, % of Control) of the same molecule?
**A.** 39.3%

**Q.** What does the source list for `COc1ccc(OC)c2[nH]c(-c3ccc(Cl)cc3)nc12` [2-(4-Chlorophenyl)-4,7-dimethoxy-1H-benzimidazole]?
**A.** remaining activity at 10 µg/mL ([2]; read-out: 5-HETE, % of Control): 77%; remaining activity at 10 µg/mL ([2]; read-out: LTB4, % of Control): 87%

**Q.** `O=CN1CCN(C2=C(Cl)C(=O)c3nsnc3C2=O)CC1` [4-(6-Chloro-4,7-dihydro-4,7-dioxo-2,1,3-benzothiadiazol-5-yl)-1-piperazinecarboxaldehyde] was tested. Which remaining activity at 10 µg/mL ([2]; read-out: 5-HETE, % of Control) did it give?
**A.** 64%

**Q.** And the remaining activity at 10 µg/mL ([2]; read-out: LTB4, % of Control)?
**A.** 90.8%

**Q.** With `O=C1C(Cl)=C(N2CCN(c3cccc(C(F)(F)F)c3)CC2)C(=O)c2nsnc21` [5-Chloro-6-6[4-[3-(trifluoromethyl)phenyl]-1-piperazinyl]-2,1,3-benzothiadiazole-4,7-dione] as the molecule, how does the IC50 [1] read?
**A.** 9.1 µM

**Q.** What about the remaining activity at 10 µg/mL ([2]; read-out: 5-HETE, % of Control) of the same molecule?
**A.** 15.2%

**Q.** What about the remaining activity at 10 µg/mL ([2]; read-out: LTB4, % of Control) of the same molecule?
**A.** 14.6%

**Q.** What does the source list for `Oc1ccc(O)c2[nH]c(-c3ccccc3)nc12` [2-Phenyl-1 --H--benzimidazole-4,7-diol, 2-Phenyl-1H-benzimidazole-4,7-diol]?
**A.** remaining activity at 10 µg/mL ([2]; read-out: 5-HETE, % of Control): 32.1%; remaining activity at 10 µg/mL ([2]; read-out: LTB4, % of Control): 33.9%

**Q.** `COc1ccc(OC)c2[nH]c(-c3ccccc3)nc12` [4,7-Dimethoxy-2-phenyl-1H-benzimidazole] was tested. Which remaining activity at 10 µg/mL ([2]; read-out: 5-HETE, % of Control) did it give?
**A.** 78.2%

**Q.** What about the remaining activity at 10 µg/mL ([2]; read-out: LTB4, % of Control) of the same molecule?
**A.** 8%

**Q.** Which IC50 [1] does the source give for `O=C1C=CC(=O)c2[nH]c(-c3ccc(Cl)cc3)nc21` [2-(4-Chlorophenyl)-1H-benzimidazole-4,7-dione] here?
**A.** 6.8 µM

**Q.** Which IC50 [1] does the source give for `Oc1ccc(O)c2[nH]c(-c3ccc(Cl)cc3)nc12` [2-(4-Chlorophenyl)-1H-benzimidazole-4,7-diol] here?
**A.** 9.7 µM

**Q.** Which remaining activity at 10 µg/mL ([2]; read-out: 5-HETE, % of Control) does the source give for `O=C1C(Cl)=C(N2CCN(c3nc4ccccc4o3)CC2)C(=O)c2nsnc21` [5-[4-(2-Benzoxazolyl)-1-piperazinyl]-6-chloro-2,1,3-benzothiadiazole-4,7-dione] here?
**A.** 20.8%

**Q.** And the remaining activity at 10 µg/mL ([2]; read-out: LTB4, % of Control)?
**A.** 25.8%
